Measured values reported in patent publication US9611275B2 (priority 2012, dated 2017).

Assay: Assay for determination of apparent permeability (Papp), bi-directional transport
Details: pig, LLC-PK1

Q: Which Papp at 3 h, 1 μM does the source give for `CO[C@@](C)([C@H]1O[C@@H]2SC(N(C)C)=N[C@@H]2[C@@H](O)[C@@H]1O)C(F)(F)F` (single isomer, unassigned) [Example 74] here?
A: 24.5 ×10⁻⁶ cm/s

Q: With `CO[C@H]([C@H]1O[C@@H]2SC(N(C)C)=N[C@@H]2[C@@H](O)[C@@H]1O)C(F)(F)F` [Example 2, (3aR,5S,6S,7R,7aR)-2-(dimethylamino)-5-((R)-2,2,2-trifluoro-1-methoxyethyl)-5,6,7,7a-tetrahydro-3aH-pyrano[3,2-d]thiazole-6,7-diol] as the molecule, how does the Papp at 3 h, 1 μM read?
A: 20.8 ×10⁻⁶ cm/s

Q: For `CNC1=N[C@@H]2[C@@H](O)[C@H](O)[C@@H]([C@H](Oc3ccccc3)C(F)(F)F)O[C@@H]2S1` [Example 3, (3aR,5S,6S,7R,7aR)-2-(methylamino)-5-((S)-2,2,2-trifluoro-1-phenoxyethyl)-5,6,7,7a-tetrahydro-3aH-pyrano[3,2-d]thiazole-6,7-diol], which Papp at 3 h, 1 μM is on record?
A: 28.3 ×10⁻⁶ cm/s

Q: With `CNC1=N[C@@H]2[C@@H](O)[C@H](O)[C@@H]([C@@H](Oc3ccccc3)C(F)(F)F)O[C@@H]2S1` [Example 4, (3aR,5S,6S,7R,7aR)-2-(methylamino)-5-((R)-2,2,2-trifluoro-1-phenoxyethyl)-5,6,7,7a-tetrahydro-3aH-pyrano[3,2-d]thiazole-6,7-diol] as the molecule, how does the Papp at 3 h, 1 μM read?
A: 27.3 ×10⁻⁶ cm/s

Q: With `CN(C)C1=N[C@@H]2[C@@H](O)[C@H](O)[C@@H]([C@@H](Oc3ccc([N+](=O)[O-])cc3)C(F)(F)F)O[C@@H]2S1` [Example 9, (3aR,5S,6S,7R,7aR)-2-(dimethylamino)-5-((R)-2,2,2-trifluoro-1-(4-nitrophenoxy)ethyl)-5,6,7,7a-tetrahydro-3aH-pyrano[3,2-d]thiazole-6,7-diol] as the molecule, how does the Papp at 3 h, 1 μM read?
A: 31.5 ×10⁻⁶ cm/s

Q: Which Papp at 3 h, 1 μM does the source give for `CN[C@H]([C@H]1O[C@@H]2SC(N(C)C)=N[C@@H]2[C@@H](O)[C@@H]1O)C(F)(F)F` [Example 16, (3aR,5R,6S,7R,7aR)-2-(dimethylamino)-5-((R)-2,2,2-trifluoro-1-(methylamino)ethyl)-5,6,7,7a-tetrahydro-3aH-pyrano[3,2-d]thiazole-6,7-diol] here?
A: 15.5 ×10⁻⁶ cm/s

Q: For `C=CCOc1ccc(CO[C@H]([C@H]2O[C@@H]3SC(N(C)C)=N[C@@H]3[C@@H](O)[C@@H]2O)C(F)(F)F)cc1` [Example 20, (3aR,5S,6S,7R,7aR)-5-((R)-1-(4-(allyloxy)benzyloxy)-2,2,2-trifluoroethyl)-2-(dimethylamino)-5,6,7,7a-tetrahydro-3aH-pyrano[3,2-d]thiazole-6,7-diol], which Papp at 3 h, 1 μM is on record?
A: 29.8 ×10⁻⁶ cm/s

Q: For `CCO[C@@H]([C@H]1O[C@@H]2SC(N(C)C)=N[C@@H]2[C@@H](O)[C@@H]1O)C(F)(F)F` [Example 22, (3aR,5S,6S,7R,7aR)-2-(dimethylamino)-5-((S)-1-ethoxy-2,2,2-trifluoroethyl)-5,6,7,7a-tetrahydro-3aH-pyrano[3,2-d]thiazole-6,7-diol], which Papp at 3 h, 1 μM is on record?
A: 27.2 ×10⁻⁶ cm/s

Q: Which Papp at 3 h, 1 μM does the source give for `CCO[C@H]([C@H]1O[C@@H]2SC(N(C)C)=N[C@@H]2[C@@H](O)[C@@H]1O)C(F)(F)F` [Example 23, (3aR,5S,6S,7R,7aR)-2-(dimethylamino)-5-((R)-1-ethoxy-2,2,2-trifluoroethyl)-5,6,7,7a-tetrahydro-3aH-pyrano[3,2-d]thiazole-6,7-diol] here?
A: 23.6 ×10⁻⁶ cm/s

Q: For `CCCO[C@H]([C@H]1O[C@@H]2SC(N(C)C)=N[C@@H]2[C@@H](O)[C@@H]1O)C(F)(F)F` [Example 25, (3aR,5S,6S,7R,7aR)-2-(dimethylamino)-5-((R)-2,2,2-trifluoro-1-propoxyethyl)-5,6,7,7a-tetrahydro-3aH-pyrano[3,2-d]thiazole-6,7-diol], which Papp at 3 h, 1 μM is on record?
A: 29.5 ×10⁻⁶ cm/s

Q: Which Papp at 3 h, 1 μM does the source give for `CCCCO[C@H]([C@H]1O[C@@H]2SC(N(C)C)=N[C@@H]2[C@@H](O)[C@@H]1O)C(F)(F)F` [Example 26, (3aR,5S,6S,7R,7aR)-5-((R)-1-butoxy-2,2,2-trifluoroethyl)-2-(dimethylamino)-5,6,7,7a-tetrahydro-3aH-pyrano[3,2-d]thiazole-6,7-diol] here?
A: 30.8 ×10⁻⁶ cm/s

Q: With `CCCCCO[C@H]([C@H]1O[C@@H]2SC(N(C)C)=N[C@@H]2[C@@H](O)[C@@H]1O)C(F)(F)F` [Example 27, (3aR,5S,6S,7R,7aR)-2-(dimethylamino)-5-((R)-2,2,2-trifluoro-1-(pentyloxy)ethyl)-5,6,7,7a-tetrahydro-3aH-pyrano[3,2-d]thiazole-6,7-diol] as the molecule, how does the Papp at 3 h, 1 μM read?
A: 32 ×10⁻⁶ cm/s

Q: With `CN(C)C1=N[C@@H]2[C@@H](O)[C@H](O)[C@@H]([C@@H](OCCCF)C(F)(F)F)O[C@@H]2S1` [Example 29, (3aR,5S,6S,7R,7aR)-2-(dimethylamino)-5-((R)-2,2,2-trifluoro-1-(3-fluoropropoxy)ethyl)-5,6,7,7a-tetrahydro-3aH-pyrano[3,2-d]thiazole-6,7-diol] as the molecule, how does the Papp at 3 h, 1 μM read?
A: 20.9 ×10⁻⁶ cm/s

Q: With `CN(C)C1=N[C@@H]2[C@@H](O)[C@H](O)[C@@H]([C@@H](OCCCCF)C(F)(F)F)O[C@@H]2S1` [Example 30, (3aR,5S,6S,7R,7aR)-2-(dimethylamino)-5-((R)-2,2,2-trifluoro-1-(4-fluorobutoxy)ethyl)-5,6,7,7a-tetrahydro-3aH-pyrano[3,2-d]thiazole-6,7-diol] as the molecule, how does the Papp at 3 h, 1 μM read?
A: 30.8 ×10⁻⁶ cm/s

Q: For `CN(C)C1=N[C@@H]2[C@@H](O)[C@H](O)[C@@H]([C@@H](OCC3CCCCC3)C(F)(F)F)O[C@@H]2S1` [Example 35, (3aR,5S,6S,7R,7aR)-5-((R)-1-(cyclohexylmethoxy)-2,2,2-trifluoroethyl)-2-(dimethylamino)-5,6,7,7a-tetrahydro-3aH-pyrano[3,2-d]thiazole-6,7-diol], which Papp at 3 h, 1 μM is on record?
A: 33.6 ×10⁻⁶ cm/s

Q: Which Papp at 3 h, 1 μM does the source give for `CN(C)C1=N[C@@H]2[C@@H](O)[C@H](O)[C@@H]([C@@H](OCCCc3ccc(F)cc3)C(F)(F)F)O[C@@H]2S1` [Example 36, (3aR,5S,6S,7R,7aR)-2-(dimethylamino)-5-((R)-2,2,2-trifluoro-1-(3-(4-fluorophenyl)propoxy)ethyl)-5,6,7,7a-tetrahydro-3aH-pyrano[3,2-d]thiazole-6,7-diol] here?
A: 28.1 ×10⁻⁶ cm/s

Q: Which Papp at 3 h, 1 μM does the source give for `Cc1ccc(CO[C@H]([C@H]2O[C@@H]3SC(N(C)C)=N[C@@H]3[C@@H](O)[C@@H]2O)C(F)(F)F)cc1` [Example 40, (3aR,5S,6S,7R,7aR)-2-(dimethylamino)-5-((R)-2,2,2-trifluoro-1-(4-methylbenzyloxy)ethy1)-5,6,7,7a-tetrahydro-3aH-pyrano[3,2-d]thiazole-6,7-diol] here?
A: 31.2 ×10⁻⁶ cm/s

Q: With `CCc1ccc(CO[C@H]([C@H]2O[C@@H]3SC(N(C)C)=N[C@@H]3[C@@H](O)[C@@H]2O)C(F)(F)F)cc1` [Example 41, (3aR,5S,6S,7R,7aR)-2-(dimethylamino)-5-((R)-1-(4-ethylbenzyloxy)-2,2,2-trifluoroethyl)-5,6,7,7a-tetrahydro-3aH-pyrano[3,2-d]thiazole-6,7-diol] as the molecule, how does the Papp at 3 h, 1 μM read?
A: 30.7 ×10⁻⁶ cm/s

Q: Which Papp at 3 h, 1 μM does the source give for `CN(C)C1=N[C@@H]2[C@@H](O)[C@H](O)[C@@H]([C@@H](OCc3cccc(F)c3F)C(F)(F)F)O[C@@H]2S1` [Example 46, (3aR,5S,6S,7R,7aR)-5-((R)-1-(2,3-difluorobenzyloxy)-2,2,2-trifluoroethyl)-2-(dimethylamino)-5,6,7,7a-tetrahydro-3aH-pyrano[3,2-d]thiazole-6,7-diol] here?
A: 34.5 ×10⁻⁶ cm/s

Q: Which Papp at 3 h, 1 μM does the source give for `C[C@H](O[C@H]([C@H]1O[C@@H]2SC(N(C)C)=N[C@@H]2[C@@H](O)[C@@H]1O)C(F)(F)F)c1ccccc1` [Example 47, (3aR,5S,6S,7R,7aR)-2-(dimethylamino)-5-((R)-2,2,2-trifluoro-1-((S)-1-phenylethoxy)ethyl)-5,6,7,7a-tetrahydro-3aH-pyrano[3,2-d]thiazole-6,7-diol] here?
A: 34 ×10⁻⁶ cm/s

Q: Which Papp at 3 h, 1 μM does the source give for `COc1ccccc1CO[C@@H]([C@H]1O[C@@H]2SC(N(C)C)=N[C@@H]2[C@@H](O)[C@@H]1O)C(F)(F)F` [Example 49, (3aR,5S,6S,7R,7aR)-2-(dimethylamino)-5-((S)-2,2,2-trifluoro-1-(2-mcthoxybenzyloxy)ethyl)-5,6,7,7a-tetrahydro-3aH-pyrano[3,2-d]thiazole-6,7-diol] here?
A: 29.8 ×10⁻⁶ cm/s

Q: Which Papp at 3 h, 1 μM does the source give for `COc1ccccc1CO[C@H]([C@H]1O[C@@H]2SC(N(C)C)=N[C@@H]2[C@@H](O)[C@@H]1O)C(F)(F)F` [Example 50, (3aR,5S,6S,7R,7aR)-2-(dimethylamino)-5-((R)-2,2,2-trifluoro-1-(2-methoxybenzyloxy)ethyl)-5,6,7,7a-tetrahydro-3aH-pyrano[3,2-d]thiazole-6,7-diol] here?
A: 31.5 ×10⁻⁶ cm/s

Q: With `COc1cccc(CO[C@H]([C@H]2O[C@@H]3SC(N(C)C)=N[C@@H]3[C@@H](O)[C@@H]2O)C(F)(F)F)c1` [Example 51, (3aR,5S,6S,7R,7aR)-2-(dimethylamino)-5-((R)-2,2,2-trifluoro-1-(3-methoxybenzyloxy)ethyl)-5,6,7,7a-tetrahydro-3aH-pyrano[3,2-d]thiazole-6,7-diol] as the molecule, how does the Papp at 3 h, 1 μM read?
A: 30.9 ×10⁻⁶ cm/s

Q: For `COc1ccc(CO[C@@H]([C@H]2O[C@@H]3SC(N(C)C)=N[C@@H]3[C@@H](O)[C@@H]2O)C(F)(F)F)cc1` [Example 53, (3aR,5S,6S,7R,7aR)-2-(dimethylamino)-5-((R)-2,2,2-trifluoro-1-(4-mcthoxybenzyloxy)ethyl)-5,6,7,7a-tetrahydro-3aH-pyrano[3,2-d]thiazole-6,7-diol], which Papp at 3 h, 1 μM is on record?
A: 33 ×10⁻⁶ cm/s

Q: Which Papp at 3 h, 1 μM does the source give for `COc1ccc(CO[C@H]([C@H]2O[C@@H]3SC(N(C)C)=N[C@@H]3[C@@H](O)[C@@H]2O)C(F)(F)F)cc1C` [Example 54, (3aR,5S,6S,7R,7aR)-2-(dimethylamino)-5-((R)-2,2,2-trifluoro-1-(4-methoxy-3-methylbenzyloxy)ethyl)-5,6,7,7a-tetrahydro-3aH-pyrano[3,2-d]thiazole-6,7-diol] here?
A: 31.3 ×10⁻⁶ cm/s

Q: Which Papp at 3 h, 1 μM does the source give for `CCc1cc(CO[C@H]([C@H]2O[C@@H]3SC(N(C)C)=N[C@@H]3[C@@H](O)[C@@H]2O)C(F)(F)F)ccc1OC` [Example 59, (3aR,5S,6S,7R,7aR)-2-(dimethylamino)-5-((R)-1-(3-ethyl-4-methoxybenzyloxy)-2,2,2-trifluoroethyl)-5,6,7,7a-tetrahydro-3aH-pyrano[3,2-d]thiazole-6,7-diol] here?
A: 29.6 ×10⁻⁶ cm/s

Q: With `COc1c(C)cc(CO[C@H]([C@H]2O[C@@H]3SC(N(C)C)=N[C@@H]3[C@@H](O)[C@@H]2O)C(F)(F)F)cc1C` [Example 60, (3aR,5S,6S,7R,7aR)-2-(dimethylamino)-5-((R)-2,2,2-trifluoro-1-(4-methoxy-3,5-dimethylbenzyloxy)ethyl)-5,6,7,7a-tetrahydro-3aH-pyrano[3,2-d]thiazole-6,7-diol] as the molecule, how does the Papp at 3 h, 1 μM read?
A: 29 ×10⁻⁶ cm/s
